Experimental data taken from patent US5250683A, “Certain substituted taxanes and pharmaceutical compositions containing them” (Florida State University, priority 1992, dated 1993).

tested on: tubulin; experiment: Tubulin binding assay (Tubulin Assay), method of Parness et al.; details: compared to taxol and taxotere

`CC(=O)O[C@@]12CO[C@@H]1C[C@H](O)[C@@]1(C)C(=O)[C@H](O)C3=C(C)[C@@H](OC(=O)[C@H](O)[C@@H](NC(=O)OC(C)(C)C)c4ccccc4)C[C@@](O)([C@@H](OC(=O)c4ccccc4)[C@H]21)C3(C)C` [Taxotere, taxotere, reference compound] and `CC(=O)O[C@H]1C(=O)[C@@]2(C)[C@H]([C@H](OC(=O)c3ccccc3)[C@]3(O)C[C@H](OC(=O)[C@H](O)[C@@H](NC(=O)c4ccccc4)c4ccccc4)C(C)=C1C3(C)C)[C@]1(OC(C)=O)CO[C@@H]1C[C@@H]2O` [Taxol, taxol, reference compound] are the same in “Tubulin Assay Init. Peak” value: 100 for the first, 100 for the second.

Compared with `COc1ccc(C(=O)N[C@@H](c2ccccc2)[C@@H](O)C(=O)O[C@H]2C[C@@]3(O)[C@@H](OC(=O)c4ccccc4)[C@@H]4[C@]5(OC(C)=O)CO[C@@H]5C[C@H](O)[C@@]4(C)C(=O)[C@H](OC(C)=O)C(=C2C)C3(C)C)cc1` [Example 14, N-debenzoyl-N-(4-methoxybenzoyl) taxol], `COc1ccc([C@H](NC(=O)c2ccccc2)[C@@H](O)C(=O)O[C@H]2C[C@@]3(O)[C@@H](OC(=O)c4ccccc4)[C@@H]4[C@]5(OC(C)=O)CO[C@@H]5C[C@H](O)[C@@]4(C)C(=O)[C@H](OC(C)=O)C(=C2C)C3(C)C)cc1` [Example 3, 3'-desphenyl-3'-(4-methoxyphenyl) taxol] is lower in “Tubulin Assay Init. Peak” value: 95 for the first, 59 for the second.

First: COc1ccc([C@H](NC(=O)c2ccc(C(C)(C)C)cc2)[C@@H](O)C(=O)O[C@H]2C[C@@]3(O)[C@@H](OC(=O)c4ccccc4)[C@@H]4[C@]5(OC(C)=O)CO[C@@H]5C[C@H](O)[C@@]4(C)C(=O)[C@H](OC(C)=O)C(=C2C)C3(C)C)cc1 [Example 31, N-debenzoyl-N-(4-t-butylbenzoyl)-3'-desphenyl-3'-(4-methoxyphenyl) taxol]
Second: CC(=O)O[C@H]1C(=O)[C@@]2(C)[C@H]([C@H](OC(=O)c3ccccc3)[C@]3(O)C[C@H](OC(=O)[C@H](O)[C@@H](NC(=O)c4ccc(C(C)(C)C)cc4)c4ccc(Cl)cc4)C(C)=C1C3(C)C)[C@]1(OC(C)=O)CO[C@@H]1C[C@@H]2O [Example 26, N-debenzoyl-N-(4-t-butylbenzoyl)-3'-desphenyl-3'-(4-chlorophenyl) taxol]
The “Tubulin Assay Init. Peak” value of the first is higher: 24 for the first, 13 for the second.

Compared with `CC(=O)O[C@H]1C(=O)[C@@]2(C)[C@H]([C@H](OC(=O)c3ccccc3)[C@]3(O)C[C@H](OC(=O)[C@H](O)[C@@H](NC(=O)c4ccc(F)cc4)c4ccccc4)C(C)=C1C3(C)C)[C@]1(OC(C)=O)CO[C@@H]1C[C@@H]2O` [Example 16, N-debenzoyl-N-(4-fluorobenzoyl) taxol], `CC(=O)O[C@H]1C(=O)[C@@]2(C)[C@H]([C@H](OC(=O)c3ccccc3)[C@]3(O)C[C@H](OC(=O)[C@H](O)[C@@H](NC(=O)c4ccc(Br)cc4)c4ccc(F)cc4)C(C)=C1C3(C)C)[C@]1(OC(C)=O)CO[C@@H]1C[C@@H]2O` [Example 19, N-debenzoyl-N-(4-bromobenzoyl)-3'-desphenyl-3'-(4-fluorophenyl) taxol] is higher in “Tubulin Assay Init. Peak” value: 66 for the first, 88 for the second.

Going from `COc1ccc([C@H](NC(=O)c2ccc(C)cc2)[C@@H](O)C(=O)O[C@H]2C[C@@]3(O)[C@@H](OC(=O)c4ccccc4)[C@@H]4[C@]5(OC(C)=O)CO[C@@H]5C[C@H](O)[C@@]4(C)C(=O)[C@H](OC(C)=O)C(=C2C)C3(C)C)cc1` [Example 22, N-debenzoyl-N-(4-methylbenzoyl)-3'-desphenyl-3'-(4-methoxyphenyl) taxol] to `CC(=O)O[C@H]1C(=O)[C@@]2(C)[C@H]([C@H](OC(=O)c3ccccc3)[C@]3(O)C[C@H](OC(=O)[C@H](O)[C@@H](NC(=O)c4ccc(C)cc4)c4ccc(Cl)cc4)C(C)=C1C3(C)C)[C@]1(OC(C)=O)CO[C@@H]1C[C@@H]2O` [Example 17, N-debenzoyl-N-(4-methylbenzoyl)-3'-desphenyl-3'-(4-chlorophenyl) taxol], the “Tubulin Assay Init. Peak” value rises from 77 to 101.

Compared with `CC(=O)O[C@H]1C(=O)[C@@]2(C)[C@H]([C@H](OC(=O)c3ccccc3)[C@]3(O)C[C@H](OC(=O)[C@H](O)[C@@H](NC(=O)c4ccc(Cl)cc4)c4ccc(Cl)cc4)C(C)=C1C3(C)C)[C@]1(OC(C)=O)CO[C@@H]1C[C@@H]2O` [Example 24, N-debenzoyl-N-(4-chlorobenzoyl)-3'-desphenyl-3'-(4-chlorophenyl) taxol], `CC(=O)O[C@H]1C(=O)[C@@]2(C)[C@H]([C@H](OC(=O)c3ccccc3)[C@]3(O)C[C@H](OC(=O)[C@H](O)[C@@H](NC(=O)c4ccc(Cl)cc4)c4ccc(F)cc4)C(C)=C1C3(C)C)[C@]1(OC(C)=O)CO[C@@H]1C[C@@H]2O` [Example 18, N-debenzoyl-N-(4-chlorobenzoyl)-3'-desphenyl-3'-(4-fluorophenyl) taxol] is higher in “Tubulin Assay Init. Peak” value: 35 for the first, 109 for the second.

Going from `CC(=O)O[C@H]1C(=O)[C@@]2(C)[C@H]([C@H](OC(=O)c3ccccc3)[C@]3(O)C[C@H](OC(=O)[C@H](O)[C@@H](NC(=O)c4ccc(F)cc4)c4ccc(F)cc4)C(C)=C1C3(C)C)[C@]1(OC(C)=O)CO[C@@H]1C[C@@H]2O` [Example 15, N-debenzoyl-N-(4-fluorobenzoyl)-3'-desphenyl-3'-(4-fluorophenyl) taxol] to `CC(=O)O[C@H]1C(=O)[C@@]2(C)[C@H]([C@H](OC(=O)c3ccccc3)[C@]3(O)C[C@H](OC(=O)[C@H](O)[C@@H](NC(=O)c4ccc(C(C)(C)C)cc4)c4ccc(F)cc4)C(C)=C1C3(C)C)[C@]1(OC(C)=O)CO[C@@H]1C[C@@H]2O` [Example 27, N-debenzoyl-N-(4-t-butylbenzoyl)-3'-desphenyl-3'-(4-fluorophenyl) taxol], the “Tubulin Assay Init. Peak” value falls from 89 to 55.

Going from `CC(=O)O[C@H]1C(=O)[C@@]2(C)[C@H]([C@H](OC(=O)c3ccccc3)[C@]3(O)C[C@H](OC(=O)[C@H](O)[C@@H](NC(=O)c4ccccc4)c4ccc5c(c4)OCO5)C(C)=C1C3(C)C)[C@]1(OC(C)=O)CO[C@@H]1C[C@@H]2O` [Example 6, 3'-desphenyl-3'-(3,4-methylenedioxyphenyl) taxol] to `CC(=O)O[C@H]1C(=O)[C@@]2(C)[C@H]([C@H](OC(=O)c3ccccc3)[C@]3(O)C[C@H](OC(=O)[C@H](O)[C@@H](NC(=O)c4ccccc4)c4ccc(Br)cc4)C(C)=C1C3(C)C)[C@]1(OC(C)=O)CO[C@@H]1C[C@@H]2O` [Example 5, 3'-desphenyl-3'-(4-bromophenyl) taxol], the “Tubulin Assay Init. Peak” value falls from 53 to 5.

`CC(=O)O[C@H]1C(=O)[C@@]2(C)[C@H]([C@H](OC(=O)c3ccccc3)[C@]3(O)C[C@H](OC(=O)[C@H](O)[C@@H](NC(=O)c4ccccc4)c4ccc(Cl)cc4)C(C)=C1C3(C)C)[C@]1(OC(C)=O)CO[C@@H]1C[C@@H]2O` [Example 4, 3'-desphenyl-3'-(4-chlorophenyl) taxol] was tested, and the “Tubulin Assay Init. Peak” value was 94.

First: COc1ccc(C(=O)N[C@@H](c2ccccc2)[C@@H](O)C(=O)O[C@H]2C[C@@]3(O)[C@@H](OC(=O)c4ccccc4)[C@@H]4[C@]5(OC(C)=O)CO[C@@H]5C[C@H](O)[C@@]4(C)C(=O)[C@H](OC(C)=O)C(=C2C)C3(C)C)cc1 [Example 14, N-debenzoyl-N-(4-methoxybenzoyl) taxol]
Second: COc1ccc([C@H](NC(=O)c2ccccc2)[C@@H](O)C(=O)O[C@H]2C[C@@]3(O)[C@@H](OC(=O)c4ccccc4)[C@@H]4[C@]5(OC(C)=O)CO[C@@H]5C[C@H](O)[C@@]4(C)C(=O)[C@H](OC(C)=O)C(=C2C)C3(C)C)cc1 [Example 3, 3'-desphenyl-3'-(4-methoxyphenyl) taxol]
The “Tubulin Assay Rel. Rate” value of the first is higher: 99 for the first, 87 for the second.

First: COc1ccc([C@H](NC(=O)c2ccc(C(C)(C)C)cc2)[C@@H](O)C(=O)O[C@H]2C[C@@]3(O)[C@@H](OC(=O)c4ccccc4)[C@@H]4[C@]5(OC(C)=O)CO[C@@H]5C[C@H](O)[C@@]4(C)C(=O)[C@H](OC(C)=O)C(=C2C)C3(C)C)cc1 [Example 31, N-debenzoyl-N-(4-t-butylbenzoyl)-3'-desphenyl-3'-(4-methoxyphenyl) taxol]
Second: CC(=O)O[C@H]1C(=O)[C@@]2(C)[C@H]([C@H](OC(=O)c3ccccc3)[C@]3(O)C[C@H](OC(=O)[C@H](O)[C@@H](NC(=O)c4ccc(C(C)(C)C)cc4)c4ccc(Cl)cc4)C(C)=C1C3(C)C)[C@]1(OC(C)=O)CO[C@@H]1C[C@@H]2O [Example 26, N-debenzoyl-N-(4-t-butylbenzoyl)-3'-desphenyl-3'-(4-chlorophenyl) taxol]
The “Tubulin Assay Rel. Rate” value of the first is higher: 44 for the first, 23 for the second.

Going from `CC(=O)O[C@H]1C(=O)[C@@]2(C)[C@H]([C@H](OC(=O)c3ccccc3)[C@]3(O)C[C@H](OC(=O)[C@H](O)[C@@H](NC(=O)c4ccc(F)cc4)c4ccccc4)C(C)=C1C3(C)C)[C@]1(OC(C)=O)CO[C@@H]1C[C@@H]2O` [Example 16, N-debenzoyl-N-(4-fluorobenzoyl) taxol] to `CC(=O)O[C@H]1C(=O)[C@@]2(C)[C@H]([C@H](OC(=O)c3ccccc3)[C@]3(O)C[C@H](OC(=O)[C@H](O)[C@@H](NC(=O)c4ccc(Br)cc4)c4ccc(F)cc4)C(C)=C1C3(C)C)[C@]1(OC(C)=O)CO[C@@H]1C[C@@H]2O` [Example 19, N-debenzoyl-N-(4-bromobenzoyl)-3'-desphenyl-3'-(4-fluorophenyl) taxol], the “Tubulin Assay Rel. Rate” value rises from 90 to 100.

First: COc1ccc([C@H](NC(=O)c2ccc(C)cc2)[C@@H](O)C(=O)O[C@H]2C[C@@]3(O)[C@@H](OC(=O)c4ccccc4)[C@@H]4[C@]5(OC(C)=O)CO[C@@H]5C[C@H](O)[C@@]4(C)C(=O)[C@H](OC(C)=O)C(=C2C)C3(C)C)cc1 [Example 22, N-debenzoyl-N-(4-methylbenzoyl)-3'-desphenyl-3'-(4-methoxyphenyl) taxol]
Second: CC(=O)O[C@H]1C(=O)[C@@]2(C)[C@H]([C@H](OC(=O)c3ccccc3)[C@]3(O)C[C@H](OC(=O)[C@H](O)[C@@H](NC(=O)c4ccc(C)cc4)c4ccc(Cl)cc4)C(C)=C1C3(C)C)[C@]1(OC(C)=O)CO[C@@H]1C[C@@H]2O [Example 17, N-debenzoyl-N-(4-methylbenzoyl)-3'-desphenyl-3'-(4-chlorophenyl) taxol]
The “Tubulin Assay Rel. Rate” value of the first is lower: 96 for the first, 98 for the second.

Going from `CC(=O)O[C@H]1C(=O)[C@@]2(C)[C@H]([C@H](OC(=O)c3ccccc3)[C@]3(O)C[C@H](OC(=O)[C@H](O)[C@@H](NC(=O)c4ccc(Cl)cc4)c4ccc(Cl)cc4)C(C)=C1C3(C)C)[C@]1(OC(C)=O)CO[C@@H]1C[C@@H]2O` [Example 24, N-debenzoyl-N-(4-chlorobenzoyl)-3'-desphenyl-3'-(4-chlorophenyl) taxol] to `CC(=O)O[C@H]1C(=O)[C@@]2(C)[C@H]([C@H](OC(=O)c3ccccc3)[C@]3(O)C[C@H](OC(=O)[C@H](O)[C@@H](NC(=O)c4ccc(Cl)cc4)c4ccc(F)cc4)C(C)=C1C3(C)C)[C@]1(OC(C)=O)CO[C@@H]1C[C@@H]2O` [Example 18, N-debenzoyl-N-(4-chlorobenzoyl)-3'-desphenyl-3'-(4-fluorophenyl) taxol], the “Tubulin Assay Rel. Rate” value rises from 60 to 92.

Compared with `CC(=O)O[C@H]1C(=O)[C@@]2(C)[C@H]([C@H](OC(=O)c3ccccc3)[C@]3(O)C[C@H](OC(=O)[C@H](O)[C@@H](NC(=O)c4ccccc4)c4ccccc4)C(C)=C1C3(C)C)[C@]1(OC(C)=O)CO[C@@H]1C[C@@H]2O` [Taxol, taxol, reference compound], `CC(=O)O[C@H]1C(=O)[C@@]2(C)[C@H]([C@H](OC(=O)c3ccccc3)[C@]3(O)C[C@H](OC(=O)[C@H](O)[C@@H](NC(=O)c4ccccc4)c4ccc(Br)cc4)C(C)=C1C3(C)C)[C@]1(OC(C)=O)CO[C@@H]1C[C@@H]2O` [Example 5, 3'-desphenyl-3'-(4-bromophenyl) taxol] is lower in “Tubulin Assay Rel. Rate” value: 98 for the first, 74 for the second.

Going from `CC(=O)O[C@H]1C(=O)[C@@]2(C)[C@H]([C@H](OC(=O)c3ccccc3)[C@]3(O)C[C@H](OC(=O)[C@H](O)[C@@H](NC(=O)c4ccc(F)cc4)c4ccc(F)cc4)C(C)=C1C3(C)C)[C@]1(OC(C)=O)CO[C@@H]1C[C@@H]2O` [Example 15, N-debenzoyl-N-(4-fluorobenzoyl)-3'-desphenyl-3'-(4-fluorophenyl) taxol] to `CC(=O)O[C@H]1C(=O)[C@@]2(C)[C@H]([C@H](OC(=O)c3ccccc3)[C@]3(O)C[C@H](OC(=O)[C@H](O)[C@@H](NC(=O)c4ccc(C(C)(C)C)cc4)c4ccc(F)cc4)C(C)=C1C3(C)C)[C@]1(OC(C)=O)CO[C@@H]1C[C@@H]2O` [Example 27, N-debenzoyl-N-(4-t-butylbenzoyl)-3'-desphenyl-3'-(4-fluorophenyl) taxol], the “Tubulin Assay Rel. Rate” value falls from 98 to 82.

Compared with `CC(=O)O[C@H]1C(=O)[C@@]2(C)[C@H]([C@H](OC(=O)c3ccccc3)[C@]3(O)C[C@H](OC(=O)[C@H](O)[C@@H](NC(=O)c4ccccc4)c4ccc5c(c4)OCO5)C(C)=C1C3(C)C)[C@]1(OC(C)=O)CO[C@@H]1C[C@@H]2O` [Example 6, 3'-desphenyl-3'-(3,4-methylenedioxyphenyl) taxol], `CC(=O)O[C@H]1C(=O)[C@@]2(C)[C@H]([C@H](OC(=O)c3ccccc3)[C@]3(O)C[C@H](OC(=O)[C@H](O)[C@@H](NC(=O)c4ccccc4)c4ccc(Cl)cc4)C(C)=C1C3(C)C)[C@]1(OC(C)=O)CO[C@@H]1C[C@@H]2O` [Example 4, 3'-desphenyl-3'-(4-chlorophenyl) taxol] is higher in “Tubulin Assay Rel. Rate” value: 85 for the first, 97 for the second.
